Results published in patent US11802120B2, “Fused cyclic urea derivatives as CRHR2 antagonist” (RaQualia Pharma Inc., priority 2018, dated 2023).

Target: T1, human CRHR2-alpha (Homo sapiens, UniProt Q13324)
T1 sequence (Q13324 1-411): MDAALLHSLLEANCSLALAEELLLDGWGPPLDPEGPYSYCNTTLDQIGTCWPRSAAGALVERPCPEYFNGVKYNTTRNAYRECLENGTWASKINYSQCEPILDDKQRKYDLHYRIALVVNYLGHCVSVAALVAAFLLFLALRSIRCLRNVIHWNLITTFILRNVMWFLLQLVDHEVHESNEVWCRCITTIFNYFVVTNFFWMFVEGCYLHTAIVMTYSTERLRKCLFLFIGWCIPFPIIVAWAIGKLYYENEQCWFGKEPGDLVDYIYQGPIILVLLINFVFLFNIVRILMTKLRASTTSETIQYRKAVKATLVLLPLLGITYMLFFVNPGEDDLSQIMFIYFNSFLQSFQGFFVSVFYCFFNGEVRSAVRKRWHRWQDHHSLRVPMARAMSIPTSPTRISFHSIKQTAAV
Assay: cAMP functional assay for human CRHR2 (LANCE Ultra cAMP, TR-FRET)
Type: cell-based
Details: CHO-K1 cells expressing human CRHR2-alpha, agonist human urocortin2 at EC80, cAMP; read-out: IC50 against CRHR2
How it was run: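 CHO-K1 stable lines; 4,000 cells/well; compound 30 min, 25° C; EC80 agonist (human urocortin2 → CRHR2, CRF → CRHR1) 30 min, 25° C; buffer HBSS/0.1% BSA/0.5 mM IBMX/5 mM Hepes pH 7.4; Eu-cAMP tracer + ULight antibody 60 min; TR-FRET read; IC50 from % inhibition curves.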

Row | Structure (SMILES) | IC50 [nM]
1 | Cc1ccc(-n2c(=O)n(C[C@H]3CC[C@H](NC(=O)c4cc(Cl)cnc4C)CC3)c3ccccc32)c(C#N)c1 [Example 247, 5-chloro-N-((1r,4r)-4-((3-(2-cyano-4-methylphenyl)-2-oxo-2,3-dihydro-1H-benzo[d]imidazol-1-yl)methyl)cyclo-hexyl)-2-methylnicotinamide] | < 300
2 | Cc1ncc(Cl)cc1C(=O)N[C@H]1CC[C@H](Cn2c(=O)n(-c3cnccc3C#N)c3ccccc32)CC1 [Example 248, 5-chloro-N-((1r,4r)-4-((3-(4-cyanopyridin-3-yl)-2-oxo-2,3-dihydro-1H-benzo[d]imidazol-1-yl)methyl)cyclohexyl)-2-methylnicotinamide] | < 300
3 | CCn1ncc2cc(-n3c(=O)n(C[C@H]4CC[C@H](NC(=O)c5cc(Cl)cnc5C)CC4)c4ccccc43)cnc21 [Example 250, 5-chloro-N-((1r,4r)-4-((3-(1-ethyl-1H-pyrazolo[3,4-b]pyridin-5-yl)-2-oxo-2,3-dihydro-1H-benzo[d]imidazol-1-yl)methyl)cyclo-hexyl)-2-methylnicotinamide] | < 300
4 | COc1ccc(Cn2c(=O)n(C[C@H]3CC[C@H](NC(=O)c4cc(Cl)cnc4C)CC3)c3cccnc32)c(OC)c1 [Example 251, 5-chloro-N-((1r,4r)-4-((3-(2,4-dimethoxybenzyl)-2-oxo-2,3-dihydro-1H-imidazo[4,5-b]pyridin-1-yl)methyl)cyclo-hexyl)-2-methylnicotinamide] | < 300
5 | Cc1ncc(Cl)cc1C(=O)N[C@H]1CC[C@H](Cn2c(=O)n(-c3cnc4c(cnn4CC4CC4)c3)c3ccccc32)CC1 [Example 252, 5-chloro-N-((1r,4r)-4-((3-(1-(cyclopropylmethyl)-1H-pyrazolo[3,4-b]pyridin-5-yl)-2-oxo-2,3-dihydro-1H-benzo [d]imidazol-1-yl)methyl)cyclo-hexyl)-2-methylnicotinamide] | < 300
6 | CCn1cc2cc(-n3c(=O)n(C[C@H]4CC[C@H](NC(=O)c5cc(Cl)cnc5C)CC4)c4ccccc43)cnc2n1 [Example 254, 5-chloro-N-((1r,4r)-4-((3-(2-ethyl-2H-pyrazolo[3,4-b]pyridin-5-yl)-2-oxo-2,3-dihydro-1H-benzo[d]imidazol-1-yl)methyl)cyclohexyl)-2-methylnicotinamide] | < 300
7 | Cc1ncc(Cl)cc1C(=O)N[C@H]1CC[C@H](Cn2c(=O)n(-c3ccc4c(c3)nnn4C)c3ccccc32)CC1 [Example 255, 5-chloro-2-methyl-N-((1r,4r)-4-((3-(1-methyl-1H-benzo[d] [1,2,3]triazol-5-yl)-2-oxo-2,3-dihydro-1H-benzo[d]imidazol-1-yl)methyl)cyclohexyl) nicotinamide] | < 300
8 | COc1ccc(C#N)c(-n2c(=O)n(C[C@H]3CC[C@H](NC(=O)c4cc(Cl)cnc4C)CC3)c3ccccc32)c1 [Example 259, 5-chloro-N-((1r,4r)-4-((3-(2-cyano-5-methoxyphenyl)-2-oxo-2,3-dihydro-1H-benzo [d]imidazol-1-yl)methyl)cyclo-hexyl)-2-methylnicotinamide] | < 300
9 | Cc1n[nH]c2ccc(-n3c(=O)n(C[C@H]4CC[C@H](NC(=O)c5cc(Cl)cnc5C(F)(F)F)CC4)c4ccccc43)cc12 [Example 260, 5-chloro-N-((1r,4r)-4-((3-(3-methyl-1H-indazol-5-yl)-2-oxo-2,3-dihydro-1H-benzo[d]imidazol-1-yl)methyl)cyclohexyl)-2-(trifluoromethyl)nicotinamide] | < 300
10 | Cc1ccc(-n2c(=O)n(C[C@H]3CC[C@H](NC(=O)c4cc(Cl)ccc4C4CC4)CC3)c3ccccc32)cn1 [Example 266, 5-chloro-2-cyclopropyl-N-((1r,4r)-4-((3-(6-methyl-pyridin-3-yl)-2-oxo-2,3-dihydro-1H-benzo[d]imidazol-1-yl)methyl)cyclo-hexyl)benzamide] | < 300
11 | Cc1ccc(-n2c(=O)n(C[C@H]3CC[C@H](NC(=O)c4cc(Cl)ccc4C)CC3)c3ccccc32)cn1 [Example 267, 5-chloro-2-methyl-N-((1r,4r)-4-((3-(6-methyl-pyridin-3-yl)-2-oxo-2,3-dihydro-1H-benzo[d]imidazol-1-yl)methyl)cyclo-hexyl)benzamide] | < 300
12 | Cc1ccc(-n2c(=O)n(C[C@H]3CC[C@H](NC(=O)c4cc(Cl)ccc4Cl)CC3)c3ccccc32)cn1 [Example 269, 2,5-dichloro-N-((1r,4r)-4-((3-(6-methylpyridin-3-yl)-2-oxo-2,3-dihydro-1H-benzo[d]imidazol-1-yl)methyl)cyclohexyl)benzamide] | < 300
13 | Cc1ccc(-n2c(=O)n(C[C@H]3CC[C@H](NC(=O)c4cc(Cl)ccc4C(F)(F)F)CC3)c3ccccc32)cn1 [Example 270, 5-chloro-N-((1r,4r)-4-((3-(6-methylpyridin-3-yl)-2-oxo-2,3-dihydro-1H-benzo[d]imidazol-1-yl)methyl)cyclo-hexyl)-2-(trifluoromethyl) benzamide] | < 300
14 | Cc1ncc(Cl)cc1C(=O)N[C@H]1CC[C@H](Cn2c(=O)n(-c3cnc4[nH]nc(C)c4c3)c3ccccc32)CC1 [Example 271, 5-chloro-2-methyl-N-((1r,4r)-4-((3-(3-methyl-1H-pyrazolo[3,4-b]pyridin-5-yl)-2-oxo-2,3-dihydro-1H-benzo[d]imidazol-1-yl)methyl)cyclohexyl)nicotinamide] | < 300

Second part, the molecule after the results:

Row | IC50 [nM] | Structure (SMILES)
15 | < 300 | Cc1ncc(Cl)cc1C(=O)N[C@H]1CC[C@H](Cn2c(=O)n(-c3ccncc3C#N)c3ccccc32)CC1 [Example 249, 5-chloro-N-((1r,4r)-4-((3-(3-cyanopyridin-4-yl)-2-oxo-2,3-dihydro-1H-benzo[d]imidazol-1-yl)methyl)cyclohexyl)-2-methylnicotinamide]
16 | < 300 | Cc1ncc(Cl)cc1C(=O)N[C@H]1CC[C@H](Cn2c(=O)n(-c3cnc4c(cnn4CCO)c3)c3ccccc32)CC1 [Example 253, 5-chloro-N-((1r,4r)-4-((3-(1-(2-hydroxyethyl)-1H-pyrazolo[3,4-b]pyridin-5-yl)-2-oxo-2,3-dihydro-1H-benzo[d]imidazol-1-yl)methyl)cyclohexyl)-2-methylnicotinamide]
17 | < 300 | Cc1ncc(Cl)cc1C(=O)N[C@H]1CC[C@H](Cn2c(=O)n(-c3ccccc3Cl)c3cccnc32)CC1 [Example 256, 5-chloro-N-((1r,4r)-4-((1-(2-chlorophenyl)-2-oxo-1H-imidazo[4,5-b]pyridin-3(2H)-yl)methyl)cyclohexyl)-2-methylnicotinamide]
18 | < 300 | Cc1ncc(Cl)cc1C(=O)N[C@H]1CC[C@H](Cn2c(=O)n(-c3ccccc3C(F)(F)F)c3cccnc32)CC1 [Example 257, 5-chloro-2-methyl-N-((1r,4r)-4-((2-oxo-1-(2-(trifluoro-methyl)phenyl)-1H-imidazo [4,5-b]pyridin-3(2H)-yl)methyl)cyclohexyl)nicotinamide]
19 | < 300 | CNC(=O)c1ccc(-n2c(=O)n(C[C@H]3CC[C@H](NC(=O)c4cc(Cl)cnc4C)CC3)c3ccc(OC)cc32)cn1 [Example 258, 5-(3-(((1r,4r)-4-(5-chloro-2-methylnicotinamido)cyclo-hexyl)methyl)-6-methoxy-2-oxo-2,3-dihydro-1H-benzo [d]imidazol-1-yl)-N-methylpicolinamide]
20 | < 300 | Cc1ncc(Cl)cc1C(=O)N[C@H]1CC[C@H](Cn2c(=O)n(-c3ccc4c(CO)noc4c3)c3ccccc32)CC1 [Example 261, 5-chloro-N-((1r,4r)-4-((3-(3-(hydroxymethyl)benzo[d]isoxazol-6-yl)-2-oxo-2,3-dihydro-1H-benzo[d]imidazol-1-yl)methyl)cyclohexyl)-2-methylnicotinamide]
21 | < 300 | Cc1ncc(Cl)cc1C(=O)N[C@H]1CC[C@H](Cn2c(=O)n(-c3ccncc3Cl)c3ccccc32)CC1 [Example 262, 5-chloro-N-((1r,4r)-4-((3-(3-chloropyridin-4-yl)-2-oxo-2,3-dihydro-1H-benzo[d]imidazol-1-yl)methyl)cyclo-hexyl)-2-methylnicotinamide]
22 | < 300 | Cc1ncc(Cl)cc1C(=O)N[C@H]1CC[C@H](Cn2c(=O)n(-c3ccc4oc(N)nc4c3)c3ccccc32)CC1 [Example 263, N-((1r,4r)-4-((3-(2-aminobenzo[d]oxazol-5-yl)-2-oxo-2,3-dihydro-1H-benzo[d]imidazol-1-yl)methyl)cyclohexyl)-5-chloro-2-methylnicotinamide]
23 | < 300 | Cc1ncc(Cl)cc1C(=O)N[C@H]1CC[C@H](Cn2c(=O)n(-c3ccc4ocnc4c3)c3ccccc32)CC1 [Example 264, N-((1r,4r)-4-((3-(benzo[d]oxazol-5-yl)-2-oxo-2,3-dihydro-1H-benzo[d]imidazol-1-yl)methyl)cyclo-hexyl)-5-chloro-2-methyl-nicotinamide]
24 | < 300 | Cc1ccc(-n2c(=O)n(C[C@H]3CC[C@H](NC(=O)c4cc(Cl)cnc4C(F)(F)F)CC3)c3ccccc32)cn1 [Example 265, 5-chloro-N-((1r,4r)-4-((3-(6-methylpyridin-3-yl)-2-oxo-2,3-dihydro-1H-benzo [d]imidazol-1-yl)methyl)cyclohexyl)-2-(trifluoro-methyl)nicotinamide]
25 | < 300 | Cc1ccc(C(F)(F)F)c(C(=O)N[C@H]2CC[C@H](Cn3c(=O)n(-c4ccc(C)nc4)c4ccccc43)CC2)c1 [Example 268, 5-methyl-N-((1r,4r)-4-((3-(6-methylpyridin-3-yl)-2-oxo-2,3-dihydro-1H-benzo[d]imidazol-1-yl)methyl)cyclohexyl)-2-(trifluoromethyl)benzamide]
